Experimental data reported in US10662161B2, “Pyrimidines and uses thereof” (Regents of the University of Minnesota, priority 2017, dated 2020).
Several values for one entry are separate records, joined by “and”; a condition that tells them apart may be missing. Identical values can stand only once. Entries after “also recorded” stand apart in the source; their conditions may differ. Counter-ions that a name gives are not always drawn.

What was measured:
Type in all cases: cell-based
human TLR8 = target: T1, human TLR8 (Homo sapiens, UniProt Q9NR97); assay: Human TLR8-specific reporter gene assay (NF-κB induction, sAP) in HEK293 cells; settings: for TLR8-agonistic activity (in words) / EC50: primary screen; for TLR8-agonistic activity (in words): reporter gene assay; for EC50: HEK293 hTLR8 reporter cells, read-out: EC50, TLR8 agonistic activity (hTLR8-specific NF-κB induction)
T1 construct: expressed in transfected cells; host or cells: HEK293
T1 sequence (Q9NR97 27-1041): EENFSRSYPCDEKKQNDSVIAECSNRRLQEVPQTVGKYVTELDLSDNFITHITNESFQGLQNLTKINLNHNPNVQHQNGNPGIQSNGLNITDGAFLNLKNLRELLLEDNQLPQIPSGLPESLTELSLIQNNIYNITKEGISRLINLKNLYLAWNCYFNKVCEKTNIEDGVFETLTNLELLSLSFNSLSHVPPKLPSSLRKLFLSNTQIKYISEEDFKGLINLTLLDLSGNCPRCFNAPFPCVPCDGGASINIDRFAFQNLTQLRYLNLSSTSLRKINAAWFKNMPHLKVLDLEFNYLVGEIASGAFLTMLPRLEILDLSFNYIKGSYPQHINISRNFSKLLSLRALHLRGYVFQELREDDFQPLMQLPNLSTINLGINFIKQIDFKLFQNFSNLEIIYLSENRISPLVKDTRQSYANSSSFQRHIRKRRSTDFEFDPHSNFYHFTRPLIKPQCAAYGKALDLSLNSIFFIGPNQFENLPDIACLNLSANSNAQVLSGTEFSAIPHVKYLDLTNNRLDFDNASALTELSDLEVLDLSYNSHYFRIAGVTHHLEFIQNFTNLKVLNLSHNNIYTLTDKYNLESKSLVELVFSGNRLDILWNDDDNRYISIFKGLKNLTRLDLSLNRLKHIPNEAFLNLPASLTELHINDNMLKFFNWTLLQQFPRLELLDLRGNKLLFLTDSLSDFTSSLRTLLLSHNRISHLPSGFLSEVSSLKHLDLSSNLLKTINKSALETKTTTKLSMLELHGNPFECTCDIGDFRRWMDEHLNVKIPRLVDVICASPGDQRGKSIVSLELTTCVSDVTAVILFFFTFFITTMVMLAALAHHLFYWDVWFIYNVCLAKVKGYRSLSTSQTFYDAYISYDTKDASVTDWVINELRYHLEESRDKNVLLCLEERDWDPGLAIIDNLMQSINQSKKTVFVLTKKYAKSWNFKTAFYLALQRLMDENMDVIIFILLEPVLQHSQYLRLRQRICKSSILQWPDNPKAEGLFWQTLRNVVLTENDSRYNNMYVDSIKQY
Description: Human TLR8-Specific Reporter Gene Assays (NF-κB Induction), and TLR-2/-3/-4/-5/-7/-9 Counter-Screens:
The induction of NF-κB was quantified using human TLR-2/-3/-4/-5/-7/-8/-9-specific, rapid-throughput, liquid handler-assisted reporter gene assays as previously described by us.^31,25, 32,33 HEK293 cells stably co-transfected with the appropriate hTLR and secreted alkaline phosphatase (sAP) were maintained in HEK-Blue™ Selection medium. Stable expression of secreted alkaline phosphatase (sAP) under control of NF-κB/AP-1 promoters is inducible by appropriate TLR agonists, and extracellular sAP in the supernatant is proportional to NF-κB induction. Reporter cells were incubated at a density of ˜10^5 cells/ml in a volume of 80 μl/well, in 384-well, flat-bottomed, cell culture-treated microtiter plates in the presence of graded concentrations of stimuli. sAP was assayed spectrophotometrically using an alkaline phosphatase-specific chromogen (present in HEK-detection medium as supplied by InvivoGen) at 620 nm.

[1] = system: CD80 expression in the monocytes (human whole blood); assay: Flow-cytometric immunostimulation: CD80 upregulation in human whole blood; settings: 16 h, CD80-PE-Cy7 MFI
Method: Flow-Cytometric Immunostimulation Experiments:
Cell surface marker upregulation was determined by flow cytometry using protocols published by us previously. Briefly, heparin-anticoagulated whole blood samples were obtained by venipuncture from healthy human volunteers with informed consent and as per guidelines approved by the University of Minnesota Human Subjects Experimentation Committee. Serial dilutions of selected compounds were performed using a Bio-Tek Precision 2000 XS liquid handler in sterile 96-well polypropylene plates, to which were added 100 μL aliquots of anticoagulated whole human blood. The plates were incubated at 37° C. for 16 h. Negative (DMSO) controls were included in each experiment. The following fluorochrome-conjugated antibodies were used: CD14-FITC, CD40-APC, CD80-PE-Cy7, CD86-V450 (Becton-Dickinson Biosciences, San Jose, Calif.). Following incubation, 2.5 μg of each antibody was added to wells with a liquid handler, and incubated at 4° C. in the dark for 60 min. Following staining, erythrocytes were lysed and leukocytes fixed by mixing 200 μL of the samples in 800 μL pre-warmed Whole Blood Lyse/Fix Buffer (Becton-Dickinson Biosciences, San Jose, Calif.) in 96 deep-well plates. After washing the cells twice at 300 g for 10 minutes in RPMI, the cells were transferred to a 96-well plate. […]

[2] = system: human peripheral blood mononuclear cells (hPBMC); assay: Multiplexed immunoassays for cytokine and chemokine induction in human PBMCs; settings: 41-analyte multiplexed immunoassay
Method: Immunoassays for Cytokines.
Fresh human peripheral blood mononuclear cells (hPBMC) were isolated from human blood obtained by venipuncture in Cell Preparation Tubes (CPT, Beckton-Dickinson) with informed consent and as per guidelines approved by the University of Minnesota Human Subjects Experimentation Committee. Aliquots of PBMCs (10^5 cells in 100 µL/well) were stimulated for 16 h with graded concentrations of test compounds. Supernatants were isolated by centrifugation, and were assayed in duplicates using analyte-specific multiplexed cytokine/chemokine bead array assays (HCYTMAG-60K-PX29 MILLIPLEX MAP Human Cytokine/Chemokine Magnetic Bead Panel, EMD Millipore, Billerica, Mass.) as reported by us previously.^19 The following analytes were quantified: sCD40L, VEGF, TNF-β, TNF-α. TGF-α, RANTES, PDGF-AB/BB, PDGF-AA, MIP-1β, MIP-1α, MDC (CCL22), MCP-3, MCP-1, IP-10, IL-17A, IL-15, IL-13, IL-12 (p70), IL-12 (p40). IL-10, IL-9, IL-8, IL-7, IL-6, IL-5, IL-4, IL-3, IL-2, IL-1 ra, IL-1β, IL-1α, IFN-γ, IFN-α2, GRO, GM-CSF, G-CSF, fractalkine, Fit-3 ligand, FGF-2, eotaxin, EGF.

Row | Structure (SMILES) | TLR8-agonistic activity (in words) (human TLR8) | also measured
1 | CCCCNc1nc(N)nc(C)c1I [Compound 4b, N^4-Butyl-5-iodo-6-methylpyrimidine-2,4-diamine] | – | TLR8 specificity/selectivity (in words) (human TLR8; reporter gene assays with TLR-2/-3/-4/-5/-7/-9 counter-screens): pure TLR8 agonist; also recorded: bona fide TLR8-specific agonist; activity in upregulating CD80 [1]: 1.5 μg/mL and 5 μM
2 | CCCCN(C)c1nc(N)nc(C)c1I [Compound 4e, N^4-Butyl-5-iodo-N^4,6-dimethylpyrimidine-2,4-diamine] | abrogated activity | –
3 | CCCCN(Cc1ccccc1)c1nc(N)nc(C)c1I [Compound 4f, N^4-Benzyl-N^4-butyl-5-iodo-6-methylpyrimidine-2,4-diamine] | abrogated activity | –
4 | CCCCOc1nc(N)nc(C)c1I [Compound 4g, 4-Butoxy-5-iodo-6-methylpyrimidin-2-amine] | inactive | –
5 | CCCCSc1nc(N)nc(C)c1I [Compound 4h, 4-(Butylthio)-5-iodo-6-methylpyrimidin-2-amine] | inactive | –
6 | CCCC#Cc1cc(C)nc(N)n1 [Compound 4i, 4-Methyl-6-(pent-1-yn-1-yl)pyrimidin-2-amine] | inactive | –
7 | CCCCCc1cc(C)nc(N)n1 [Compound 4j, 4-Methyl-6-pentylpyrimidin-2-amine] | inactive | –
8 | CCCCCc1nc(N)nc(C)c1I [Compound 4k, 5-iodo-4-methyl-6-pentylpyrimidin-2-amine] | inactive | –
9 | CCCCNc1nc(N)nc(C)c1Cl [Compound 6a, N^4-Butyl-5-chloro-6-methylpyrimidine-2,4-diamine] | substantial losses in potency | –
10 | CCCCNc1nc(N)nc(C)c1Br [Compound 6b, 5-Bromo-N^4-butyl-6-methylpyrimidine-2,4-diamine] | substantial losses in potency | –
11 | CCCCNc1nc(N)nc(C)c1F [Compound 6c, N^4-Butyl-5-fluoro-6-methylpyrimidine-2,4-diamine] | substantial losses in potency | –
12 | CCCCNc1cc(C)nc(N)n1 [Compound 15, N^4-Butyl-6-methylpyrimidine-2,4-diamine] | – | EC50 (human TLR8): 22000 nM; fold less active than 4b (TLR8 EC50) (human TLR8; relative to 4b): ca. fourteen-fold less active
13 | CCCCNc1ccnc(N)n1 [Compound 16, N^4-Butylpyrimidine-2,4-diamine] | – | EC50 (human TLR8): 73200 nM
14 | CCCCNc1nc(N)ncc1I [Compound 17, N^4-Butyl-5-iodopyrimidine-2,4-diamine] | entirely without measurable TLR8-agonistic activity | –
15 | CCCCNc1nc(N)nc(C)c1Cc1ccccc1 [Compound 24, 5-Benzyl-MN-butyl-6-methylpyrimidine-2,4-diamine] | diminution of activity, exhibiting greatly attenuated area-under-the curve | –
16 | CCCCNc1nc(N)nc(C)c1CCCN.Cl.Cl [Compound 27a, 5-(3-Aminopropyl)-N^4-butyl-6-methylpyrimidine-2,4-diamine dihydrochloride] | – | EC50 (human TLR8): 2310 nM; fold increase in TLR8 potency relative to that of 4b (22 μM) (human TLR8; reference printed as 4b (22 μM)): increased nearly ten-fold
17 | CCCCNc1nc(N)nc(C)c1CCCCCN.Cl.Cl [Compound 27c, 5-(5-Aminopentyl)-MN-butyl-6-methylpyrimidine-2,4-diamine dihydrochloride] | appeared to plateau | –
18 | CCCCNc1nc(N)nc(-c2ccccc2)c1I [Compound 29, N^4-Butyl-5-iodo-6-phenylpyrimidine-2,4-diamine] | inactive | –
19 | CCCCNc1nc(N)nc(-c2ccccc2)c1CCCCN.Cl.Cl [Compound 32b, 5-(4-Aminobutyl)-N^4-butyl-6-phenylpyrimidine-2,4-diamine dihydrochloride] | – | EC50 (human TLR8): 2700 nM; cytokine and chemokine induction (in words) [2]: significantly weaker
20 | CCCCNc1nc(N)nc(-c2ccccc2)c1CCCCCN [Compound 32c, 5-(5-Aminopentyl)-N^4-butyl-6-phenylpyrimidine-2,4-diamine dihydrochloride] | – | EC50 (human TLR8): 2350 nM
